In patent US10821100B2, “Triazolone compounds as mPGES-1 inhibitors” (Glenmark Pharmaceuticals S.A., priority 2012, dated 2020) one finds inhibition and IC50 data, which are given here for 17 compounds.

Some results are limits rather than exact numbers.

As usually defined, the inhibition is the drop in the measured response relative to a control, in per cent. A word on the IC50: it is the concentration needed to halve the response being measured.

The assay concerns the target T1, Recombinant human mPGES-1 (Homo sapiens, UniProt O14684).
T1 construct: made in house; host or cells: CHO cells (crude microsomal fractions)
T1 sequence (O14684 1-152): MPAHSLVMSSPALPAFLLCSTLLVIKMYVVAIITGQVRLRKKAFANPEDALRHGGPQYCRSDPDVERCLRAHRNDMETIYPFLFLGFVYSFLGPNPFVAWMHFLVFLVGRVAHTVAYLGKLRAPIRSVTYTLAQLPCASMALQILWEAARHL
Nature of the assay: In-vitro screening of mPGES-1 inhibitors (inhibition of PGE2 formation from PGH2, HTRF detection). Format: biochemical. As to conditions: mPGES-1 enzyme; for inhibition at 1 µM: 1 μM test compound, read-out: Percentage inhibition at 1 μM; for inhibition at 10 µM: 10 μM test compound, read-out: Percentage inhibition at 10 μM; for IC50: class symbols. From the text:
In-Vitro Protocol for Screening of mPGES-1 Inhibitors: mPGES-1 (Microsomal prostaglandin E synthase-1) is a microsomal enzyme that converts endoperoxide substrate PGH2 (prostaglandin H2) to product PGE2 (prostaglandin E2) by isomerization in the presence of reduced glutathione (GSH). mPGES-1 inhibitors were screened by assessing their ability to inhibit formation of PGE2 from PGH2 in the presence of mPGES-1 using an anti-PGE2 antibody based detection method. Recombinant human mPGES-1 was generated in-house by expression in CHO cells (Ouellet M et al. (2002), Protein Expression and Purification 26: 489-495). The assay was set up using crude microsomal fractions at a protein concentration of 40-60 μg/mL. Test compounds were prepared in 100% dimethyl sulfoxide (DMSO) to obtain 20 mM stock solution and then diluted using assay buffer comprising 0.1 M Potassium phosphate buffer with 2 mM EDTA. The final concentration of DMSO in the reaction was 0.5% (v/v). Negative controls were comprised of all assay reagents except the enzyme. Positive controls were comprised of the enzyme reaction in the absence of any inhibitor. Test compounds were incubated for 10 minutes in assay buffer containing 2.5 mM GSH and mPGES-1 enzyme followed by addition of PGH2 at a concentration of 15 μM for 1 minute. The reaction was stopped by addition of Stannous chloride (11 mg/ml) and PGE2 levels were measured ([…] et al. (2005), Journal of Biomolecular Screening 10(6) 599-605; Goedken R E et al. (2008), Journal of Biomolecular Screening 13 (7): 619-625) by HTRF kit (CisBio)). Inhibition of mPGES-1 enzyme activity was measured using the percent of reaction occurring in the positive control. Concentration response curves were plotted using percent inhibition of maximum enzyme reaction. The IC50 value was calculated from the concentration response curve by nonlinear regression analysis using GraphPad PRISM software.

With `CC(C)(C)C(=O)NCc1cnc(C2CC2)c(-c2nn(-c3ccc(C(F)(F)F)cc3)c(=O)[nH]2)c1` [Example-180, N-((6-Cyclopropyl-5-(1-(4-(trifluoromethyl)phenyl)-4,5-dihydro-5-oxo-1H-1,2,4-triazol-3-yl)pyridin-3-yl)methyl)pivalamide], the IC50 was above 100 nM. Also, where the note is “crude microsomal fractions”, the inhibition at 1 µM was determined as 72.3% and the inhibition at 10 µM was 92.5%.

On to `COc1cc(-n2nc(-c3cc(CNC(=O)C4CC4)ccc3Cl)[nH]c2=O)ccc1-c1nc(-c2ccc(Cl)cc2)no1` [Example-57, N-(4-Chloro-3-(1-(4-(3-(4-chlorophenyl)-1,2,4-oxadiazol-5-yl)-3-methoxyphenyl)-5-oxo-4,5-dihydro-1H-1,2,4-triazol-3-yl)benzyl)cyclopropanecarboxamide], for which the concentration for half-maximal inhibition (IC50) was below 50 nM. Moreover, the inhibition at 1 µM (crude microsomal fractions) was found to be 98.7%. Further, for the setting “3 μM test compound, crude microsomal fractions, read-out: Percentage inhibition at 3 μM”, the inhibition at 3 µM is 98.5%.

As for `CC(C)(C)C(=O)NCc1ccc(Cl)c(-c2nn(-c3ccc(C#CC4CC4)cc3F)c(=O)[nH]2)c1` [Example-181, N-(4-Chloro-3-(1-(4-(2-cyclopropylethynyl)-2-fluorophenyl)-4,5-dihydro-5-oxo-1H-1,2,4-triazol-3-yl)benzyl)pivalamide], the IC50 is below 50 nM. Further, for the setting “crude microsomal fractions”, the inhibition at 1 µM came to 88.2% and the inhibition at 10 µM came out at 94.3%.

Turning to `CC(C)(CO)C(=O)NCc1ccc(Cl)c(-n2nc(-c3ccc(C#CC4CC4)cc3)[nH]c2=O)c1` [Example-191, N-(4-Chloro-3-(3-(4-(cyclopropylethynyl)phenyl)-5-oxo-4,5-dihydro-1H-1,2,4-triazol-1-yl)benzyl)-3-hydroxy-2,2-dimethylpropanamide], the IC50 was above 100 nM. For the setting “crude microsomal fractions”, the inhibition at 1 µM worked out at 93.5% and the inhibition at 10 µM was determined as 100%.

Turning to `COc1cc(-n2nc(-c3c(F)cccc3Cl)[nH]c2=O)ccc1C(=O)NC1(c2ccc(C(F)(F)F)cc2)CC1` [Example-27, 4-(3-(2-Chloro-6-fluorophenyl)-5-oxo-4,5-dihydro-1H-1,2,4-triazol-1-yl)-2-methoxy-N-(1-(4-(trifluoromethyl)phenyl)cyclopropyl)benzamide], under “crude microsomal fractions”, the inhibition at 1 µM was found to be 72.8% and the inhibition at 10 µM amounted to 97.5%.

Turning to `COc1cc(-n2nc(-c3c(F)cccc3Cl)[nH]c2=O)ccc1-c1nc(-c2cc(F)cc(C(F)(F)F)c2)no1` [Example-47, 3-(2-Chloro-6-fluorophenyl)-1-(4-(3-(3-fluoro-5-(trifluoromethyl)phenyl)-1,2,4-oxadiazol-5-yl)-3-methoxyphenyl)-1H-1,2,4-triazol-5(4H)-one], the IC50 was below 50 nM. Moreover, for the setting “crude microsomal fractions”, the inhibition at 1 µM worked out at 89.5% and the inhibition at 10 µM was 96.5%.

Take `CC(C)S(=O)(=O)NCc1ccc(Cl)c(-c2nn(-c3ccc(C(F)(F)F)cc3)c(=O)[nH]2)c1` [Example-162, N-(4-Chloro-3-{5-oxo-1-[4-(trifluoromethyl)phenyl]-4,5-dihydro-1H-1,2,4-triazol-3-yl}benzyl)propane-2-sulfonamide]: the IC50 was below 50 nM. Further, under “crude microsomal fractions”, the inhibition at 1 µM was found to be 99.3% and the inhibition at 10 µM amounted to 99.3%.

`COc1cc(-c2nn(-c3c(Cl)cccc3Cl)c(=O)[nH]2)ccc1C(=O)Nc1ccc(F)c(C(F)(F)F)c1` [Example-77, 4-(1-(2,6-Dichlorophenyl)-5-oxo-4,5-dihydro-1H-1,2,4-triazol-3-yl)-N-(4-fluoro-3-(trifluoromethyl)phenyl)-2-methoxybenzamide]: the IC50 was 50 to 100 nM. Under “crude microsomal fractions”, the inhibition at 1 µM was 93.2% and the inhibition at 10 µM came out at 98.1%.

With `O=C(NCc1cc(-c2nn(-c3ccc(C(F)(F)F)cc3)c(=O)[nH]2)c(Cl)cc1F)[C@H]1CCCO1` [Example-119, (R)—N-(4-chloro-2-fluoro-5-(5-oxo-1-(4-(trifluoromethyl)phenyl)-4,5-dihydro-1H-1,2,4-triazol-3-yl)benzyl)tetrahydrofuran-2-carboxamide], the IC50 was below 50 nM. Further, for the setting “crude microsomal fractions”, the inhibition at 1 µM turned out to be 88.7% and the inhibition at 10 µM came out at 94.3%.

As to `COc1cc(-n2nc(-c3cc(CNC(=O)C4CC4)ccc3Cl)[nH]c2=O)ccc1NC(=O)C1CC1` [Example-66, N-(4-Chloro-3-(1-(4-(cyclopropanecarboxamido)-3-methoxyphenyl)-5-oxo-4,5-dihydro-1H-1,2,4-triazol-3-yl)benzyl)cyclopropanecarboxamide], the IC50 is above 100 nM. Moreover, under “crude microsomal fractions”, the inhibition at 1 µM is 87.8% and the inhibition at 10 µM is 98.8%.

Turning to `N#Cc1cnc(C(F)F)c(-c2nn(-c3ccc(C(F)(F)F)cc3)c(=O)[nH]2)c1` [Example-183, 6-(Difluoromethyl)-5-(5-oxo-1-(4-(trifluoromethyl)phenyl)-4,5-dihydro-1H-1,2,4-triazol-3-yl)nicotinonitrile], where the note is “crude microsomal fractions”, the inhibition at 1 µM is 41.5% and the inhibition at 10 µM amounted to 85.5%.

As for `CC(C)(C)C(=O)NCc1ccc(Cl)c(-c2nn(-c3ccc(F)c(Cl)c3)c(=O)[nH]2)c1` [Example-139, N-(4-Chloro-3-(1-(3-chloro-4-fluorophenyl)-4,5-dihydro-5-oxo-1H-1,2,4-triazol-3-yl)benzyl)pivalamide], the IC50 is below 50 nM. Also, for the setting “crude microsomal fractions”, the inhibition at 1 µM turned out to be 93.9% and the inhibition at 10 µM stood at 99.1%.

For `CC(C)(C)C(=O)NCc1ccc(Cl)c(-c2nn(-c3ccc(C(F)(F)F)c(F)c3)c(=O)[nH]2)c1` [Example-160, N-(4-Chloro-3-(1-(3-fluoro-4-(trifluoromethyl)phenyl)-4,5-dihydro-5-oxo-1H-1,2,4-triazol-3-yl)benzyl)pivalamide], the IC50 was below 50 nM. Also, for the setting “crude microsomal fractions”, the inhibition at 1 µM is 96.6% and the inhibition at 10 µM turned out to be 97.3%.

Regarding `COc1cc(-n2nc(-c3cc(S(=O)(=O)NC4CC4)ccc3Cl)[nH]c2=O)ccc1C(=O)Nc1cccc(C(F)(F)F)c1` [Example-69, 4-(3-(2-Chloro-5-(N-cyclopropylsulfamoyl)phenyl)-5-oxo-4,5-dihydro-1H-1,2,4-triazol-1-yl)-2-methoxy-N-(3-(trifluoromethyl)phenyl)benzamide], the IC50 was above 100 nM. Also, under “crude microsomal fractions”, the inhibition at 1 µM was found to be 86.4% and the inhibition at 10 µM was determined as 89.1%.

For `CC(C)(C)C(=O)NCc1ccc(Cl)c(-n2nc(-c3ccc(C(F)(F)F)cc3F)[nH]c2=O)c1F` [Example-87, N-(4-Chloro-2-fluoro-3-(3-(2-fluoro-4-(trifluoromethyl)phenyl)-5-oxo-4,5-dihydro-1H-1,2,4-triazol-1-yl)benzyl)pivalamide], the IC50 lay within 50 to 100 nM. For the same compound, under “crude microsomal fractions”, the inhibition at 1 µM came out at 93.4% and the inhibition at 10 µM amounted to 99.2%.

As to `COc1cc(-c2nn(-c3c(Cl)cccc3Cl)c(=O)[nH]2)ccc1C(=O)Nc1cccc(C(F)(F)F)c1` [Example-76, 4-(1-(2,6-Dichlorophenyl)-5-oxo-4,5-dihydro-1H-1,2,4-triazol-3-yl)-2-methoxy-N-(3-(trifluoromethyl)phenyl)benzamide], the IC50 is below 50 nM. Where the note is “crude microsomal fractions”, the inhibition at 1 µM was determined as 95.6% and the inhibition at 10 µM was 95.4%.

In the case of `CC(C)(C)C(=O)NCc1ccc(Cl)c(-c2nn(-c3ccc(C#N)cc3)c(=O)[nH]2)c1F` [Example-89, N-(4-chloro-3-(1-(4-cyanophenyl)-5-oxo-4,5-dihydro-1H-1,2,4-triazol-3-yl)-2-fluorobenzyl)pivalamide], the IC50 was below 50 nM. Under “crude microsomal fractions”, the inhibition at 1 µM amounted to 95.3% and the inhibition at 10 µM was determined as 99.1%.
